Test results reported in patent publication US11584755B2 (IDEAYA BIOSCIENCES, INC., priority 2017, dated 2023).

Target: hFEN1 (Homo sapiens (Human), UniProt P39748)
Assay: Enzymatic IC50 assay, FAM-labeled DNA oligomer substrate, fluorescence intensity (FEN1)
Format: biochemical
Details: hFEN1 70 pM, substrate 100 nM, reaction time 20 minutes, 23° C.
Protocol: FEN1, EXO1 or XPG enzyme was incubated with compound or vehicle (DMSO) and the FAM-labeled DNA oligomer substrate in a microtiter plate. The stop buffer contains EDTA to stop the enzymatic reaction. The plate is read for fluorescence intensity. The high control (DMSO) with high fluorescence intensity represents no inhibition of enzymatic reaction while the low control (10 μM) with low fluorescence intensity represents full inhibition of enzymatic reaction.
• FEN1 • hFEN1: 70 pM • Substrate: 100 nM • Reaction time: 20 minutes • EXO1 • hEXO1: 6 nM, Isoforml • Substrate: 30 nM • Reaction time: 60 minutes • XPG • hXPG: 100 nM • Substrate: 100 nM • Reaction time: 120 minutes
Annealing Buffer: 50 mM Tris-HCl, 50 mM NaCl, 1 mM DTT Assay buffer: 50 mM Tris-HCl pH 8.0, 10 mM MgCl2, 0.01% BSA, 1 mM DTT Stop buffer: 50 mM EDTA in assay buffer Temperature: 23° C. Total volume: 40 μl Controls: • 0% inhibition control: DMSO • 100% inhibition control: 10 μM (final) 5-chloro-3-hydroxy-1,3-dihydroquinazoline-2,4-dione Enzyme Reaction and Detection: • 1. Prepare 25 μM intermediate stock of the substrate by diluting SEQ ID NO:1, SEQ ID NO:2, and SEQ ID NO:3 in annealing buffer, in a PCR tube. • 2. Place the PCR tube on a heat block, heat at 95° C. for 3 minutes, then drop in 0.2° C. increments over 2 minutes, stopping at 25° C. • 3. Remove the tube and let the tube cool at room temperature. • 4. Transfer 10 μL of 3× final concentration test compounds or DMSO to the appropriate wells of a microtiter plate. • 5. Transfer 10 μL of 3× final concentration enzyme in assay buffer or assay buffer alone to the appropriate wells. • 6. Incubate the plate at room temperature for 15 minutes. • 7. Transfer 10 μL of 3× substrate in assay buffer to all the test wells. • 8. Incubate the plate at room temperature for prescribed reaction time. • 9. Centrifuge the plate at 1000 rpm for 1 minute. • 10. Transfer 10 μL of stop buffer to all the test wells. • 11. Centrifuge the plate at 1000 rpm for 1 minute. • 12. Read the plate on a plate reader.

hFEN1, sequence (P39748 whole entry): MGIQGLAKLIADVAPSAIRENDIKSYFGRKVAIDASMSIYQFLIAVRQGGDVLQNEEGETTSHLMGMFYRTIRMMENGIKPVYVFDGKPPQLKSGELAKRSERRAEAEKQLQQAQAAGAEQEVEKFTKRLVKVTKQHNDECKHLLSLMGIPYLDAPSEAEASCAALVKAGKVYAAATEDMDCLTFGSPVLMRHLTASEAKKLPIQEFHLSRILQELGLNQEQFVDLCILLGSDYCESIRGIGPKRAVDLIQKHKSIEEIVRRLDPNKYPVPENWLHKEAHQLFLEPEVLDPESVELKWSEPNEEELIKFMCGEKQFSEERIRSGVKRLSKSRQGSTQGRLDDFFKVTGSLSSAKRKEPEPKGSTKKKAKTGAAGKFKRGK

Row | IC50 [nM] | SMILES
1 | < 200 | O=C(O)c1c(O)c(=O)n(Cc2cnn(CC(F)(F)F)c2)c2ccsc12 [Example 137, 6-hydroxy-5-oxo-4-{[1-(2,2,2-trifluoroethyl)-1H-pyrazol-4-yl]methyl}-4,5-dihydrothieno[3,2-b]pyridine-7-carboxylic acid]
2 | < 200 | N#Cc1ccc(-n2cc(Cn3c(=O)c(O)c(C(=O)O)c4sccc43)cn2)cc1 [Example 110, 4-{[1-(4-cyanophenyl)-1H-pyrazol-4-yl]methyl}-6-hydroxy-5-oxo-4,5-dihydrothieno[3,2-b]pyridine-7-carboxylic acid]
3 | 250 to 750 | O=C(O)c1c(O)c(=O)n(Cc2cnn(-c3ccc(Cl)cc3)c2)c2ccsc12 [Example 105, 4-{[1-(4-chlorophenyl)-1H-pyrazol-4-yl]methyl}-6-hydroxy-5-oxo-4,5-dihydrothieno[3,2-b]pyridine-7-carboxylic acid]
4 | 250 to 750 | O=C(O)c1c(O)c(=O)n(Cc2cncc(-c3ccccc3)c2)c2ccsc12 [Example 103, 6-hydroxy-5-oxo-4-[(5-phenylpyridin-3-yl)methyl]-4,5-dihydrothieno[3,2-b]pyridine-7-carboxylic acid]
5 | 250 to 750 | CNC(=O)c1ccc(Cn2c(=O)c(O)c(C(=O)O)c3sccc32)cc1 [Example 67, 6-hydroxy-4-(4-(methylcarbamoyl)benzyl)-5-oxo-4,5-dihydrothieno[3,2-b]pyridine-7-carboxylic acid]
6 | 250 to 750 | Cc1ncc(Cn2c(=O)c(O)c(C(=O)O)c3sccc32)o1 [Example 95, 6-hydroxy-4-[(2-methyloxazol-5-yl)methyl]-5-oxo-4,5-dihydrothieno[3,2-b]pyridine-7-carboxylic acid]
7 | 250 to 750 | O=C(O)c1c(O)c(=O)n(Cc2ncn(-c3ccccc3)n2)c2ccsc12 [Example 20, 6-hydroxy-5-oxo-4-[(1-phenyl-1H-1,2,4-triazol-3-yl)methyl]-4,5-dihydrothieno[3,2-b]pyridine-7-carboxylic acid]
8 | 250 to 750 | O=C(O)c1c(O)c(=O)n(Cc2cnn(-c3ccncc3)c2)c2ccsc12 [Example 112, 6-hydroxy-5-oxo-4-{[1-(pyridin-4-yl)-1H-pyrazol-4-yl]methyl}-4,5-dihydrothieno[3,2-b]pyridine-7-carboxylic acid]
9 | 250 to 750 | O=C1CC(Cn2c(=O)c(O)c(C(=O)O)c3sccc32)CN1 (stereo not drawn) [Example 76, 6-hydroxy-5-oxo-4-[(5-oxopyrrolidin-3-yl)methyl]-4,5-dihydrothieno[3,2-b]pyridine-7-carboxylic acid]
10 | 250 to 750 | O=C(O)c1c(O)c(=O)n(Cc2cnn(CC3CCS(=O)(=O)CC3)c2)c2ccsc12 [Example 145]
11 | 750 to 2250 | O=C(O)c1c(O)c(=O)n(Cc2cccc(OC(F)(F)F)c2)c2ccsc12 [Example 55, 6-hydroxy-5-oxo-4-(3-(trifluoromethoxy)benzyl)-4,5-dihydrothieno[3,2-b]pyridine-7-carboxylic acid]
12 | 250 to 750 | CS(=O)(=O)COc1ccc(Cn2c(=O)c(O)c(C(=O)O)c3sccc32)cc1 [Example 153, 6-hydroxy-4-{4-[(methylsulfonyl)methoxy]benzyl}-5-oxo-4,5-dihydrothieno[3,2-b]pyridine-7-carboxylic acid]
13 | 2250 to 10000 | N#Cc1cccc(Cn2c(=O)c(O)c(C(=O)O)c3sccc32)c1 [Example 58, 4-(3-cyanobenzyl)-6-hydroxy-5-oxo-4,5-dihydrothieno[3,2-b]pyridine-7-carboxylic acid]
14 | 250 to 750 | COc1cc(-c2ccc(Cn3c(=O)c(O)c(C(=O)O)c4sccc43)cc2)ccn1 [Example 151, 6-hydroxy-4-(4-(2-methoxypyridin-4-yl)benzyl)-5-oxo-4,5-dihydrothieno[3,2-b]pyridine-7-carboxylic acid]
15 | 2250 to 10000 | O=C(O)c1c(O)c(=O)n(Cc2ccccc2F)c2ccsc12 [Example 68, 4-(2-fluorobenzyl)-6-hydroxy-5-oxo-4,5-dihydrothieno[3,2-b]pyridine-7-carboxylic acid]
16 | 250 to 750 | O=C(O)c1c(O)c(=O)n(Cc2ccc(Cl)c(Cl)c2)c2ccsc12 [Example 59, 4-(3,4-dichlorobenzyl)-6-hydroxy-5-oxo-4,5-dihydrothieno[3,2-b]pyridine-7-carboxylic acid]
17 | 2250 to 10000 | COc1ccccc1Cn1c(=O)c(O)c(C(=O)O)c2sccc21 [Example 64, 6-hydroxy-4-(2-methoxybenzyl)-5-oxo-4,5-dihydrothieno[3,2-b]pyridine-7-carboxylic acid]

Row | IC50 [nM] | SMILES
18 | < 200 | O=C(O)c1c(O)c(=O)n(Cc2cnn(CC(=O)N3CC[C@@H](O)C3)c2)c2ccsc12 [Example 27, 6-hydroxy-4-[(1-{2-[(3R)-3-hydroxypyrrolidin-1-yl]-2-oxo-ethyl}pyrazol-4-yl)methyl]-5-oxo-thieno[3,2-b]pyridine-7-carboxylic acid]
19 | 2250 to 10000 | O=C(O)c1c(O)c(=O)n(Cc2ccccn2)c2ccsc12 [Example 38, 6-hydroxy-5-oxo-4-(pyridin-2-ylmethyl)-4,5-dihydrothieno[3,2-b]pyridine-7-carboxylic acid]
20 | < 200 | COc1cccc(Cn2cc(Cn3c(=O)c(O)c(C(=O)O)c4sccc43)nn2)c1 [Example 150, 6-hydroxy-4-{[1-(3-methoxybenzyl)-1H-1,2,3-triazol-4-yl]methyl}-5-oxo-4,5-dihydrothieno[3,2-b]pyridine-7-carboxylic acid]
21 | 2250 to 10000 | N#Cc1ccccc1Cn1c(=O)c(O)c(C(=O)O)c2sccc21 [Example 54, 4-(2-cyanobenzyl)-6-hydroxy-5-oxo-4,5-dihydrothieno[3,2-b]pyridine-7-carboxylic acid]
22 | 250 to 750 | O=C(O)c1c(O)c(=O)n(Cc2ccc3ccc(=O)[nH]c3c2)c2ccsc12 [Example 77, 6-hydroxy-5-oxo-4-[(2-oxo-1,2-dihydroquinolin-7-yl)methyl]-4,5-dihydrothieno[3,2-b]pyridine-7-carboxylic acid]
23 | < 200 | COc1cc(Cn2cc(Cn3c(=O)c(O)c(C(=O)O)c4sccc43)cn2)ccc1C#N [Example 26, 4-{[1-(4-cyano-3-methoxybenzyl)-1H-pyrazol-4-yl]methyl}-6-hydroxy-5-oxo-4,5-dihydrothieno[3,2-b]pyridine-7-carboxylic acid]
24 | 2250 to 10000 | Cn1nc(Cn2c(=O)c(O)c(C(=O)O)c3sccc32)c2ccccc21 [Example 51]
25 | < 200 | O=C(O)c1c(O)c(=O)n(Cc2cnn(Cc3cn4cccnc4n3)c2)c2ccsc12 [Example 139, 6-hydroxy-4-{[1-(imidazo[1,2-a]pyrimidin-2-ylmethyl)-1H-pyrazol-4-yl]methyl}-5-oxo-4,5-dihydrothieno[3,2-b]pyridine-7-carboxylic acid]
26 | 2250 to 10000 | O=C(O)c1c(O)c(=O)n(CC2COCCO2)c2ccsc12 (stereo not drawn) [Example 74, 4-((1,4-dioxan-2-yl)methyl)-6-hydroxy-5-oxo-4,5-dihydrothieno[3,2-b]pyridine-7-carboxylic acid]
27 | < 200 | O=C(O)c1c(O)c(=O)n(Cc2nnc(-c3ccccc3)s2)c2ccsc12 [Example 93, 6-hydroxy-5-oxo-4-[(5-phenyl-1,3,4-thiadiazol-2-yl)methyl]-4,5-dihydrothieno[3,2-b]pyridine-7-carboxylic acid]
28 | 2250 to 10000 | O=C(O)c1c(O)c(=O)n(CC2COc3ccccc3C2)c2ccsc12 (stereo not drawn) [Example 80, 4-(chroman-3-ylmethyl)-6-hydroxy-5-oxo-4,5-dihydrothieno[3,2-b]pyridine-7-carboxylic acid]
29 | 750 to 2250 | CC(=O)Nc1ccc(Cn2c(=O)c(O)c(C(=O)O)c3sccc32)cc1Cl [Example 14, 4-(4-acetamido-3-chlorobenzyl)-6-hydroxy-5-oxo-4,5-dihydrothieno[3,2-b]pyridine-7-carboxylic acid]
30 | 750 to 2250 | O=C(O)c1c(O)c(=O)n(Cc2ccc3[nH]c(=O)ccc3c2)c2ccsc12 [Example 17, 6-hydroxy-5-oxo-4-[(2-oxo-1H-quinolin-6-yl)methyl]thieno[3,2-b]pyridine-7-carboxylic acid]
31 | < 200 | Nc1ccc(-n2cc(Cn3c(=O)c(O)c(C(=O)O)c4sccc43)cn2)cc1 [Example 118, 4-{[1-(4-aminophenyl)-1H-pyrazol-4-yl]methyl}-6-hydroxy-5-oxo-4,5-dihydrothieno[3,2-b]pyridine-7-carboxylic acid]
32 | < 200 | O=C(O)c1c(O)c(=O)n(Cc2cnn(Cc3cncnc3)c2)c2ccsc12 [Example 135, 6-hydroxy-5-oxo-4-{[1-(pyrimidin-5-ylmethyl)-1H-pyrazol-4-yl]methyl}-4,5-dihydrothieno[3,2-b]pyridine-7-carboxylic acid]
33 | 2250 to 10000 | O=C(O)c1c(O)c(=O)n(Cc2cncc3ccccc23)c2ccsc12 [Example 104, 6-hydroxy-4-(isoquinolin-4-ylmethyl)-5-oxo-4,5-dihydrothieno[3,2-b]pyridine-7-carboxylic acid]
